Measured values published in patent US20240360177A1, “PEPTIDES WITH ANTIMICROBIAL ACTIVITIES” (priority 2021, published 2024).
≈ marks a conversion by molar mass, not a printed value. Non-standard residues stand in square brackets, D forms with d. Residues, ends and D or L forms follow the SMILES beside them. hLeu = CC(C)CC[C@H](N)C(=O)O; AEA = NCCOCC(=O)O; Ava = NCCCCC(=O)O; βAla = NCCC(=O)O

How the values were obtained:
Settings in all cases: 24 h
[1] = system: C. dubliniensis
[2] = system: C. glabrata
[3] = system: C. albicans
[4] = system: C. tropicalis
[5] = system: C. parapsilosis

| MIC C. dubliniensis [1] | MIC C. glabrata [2] | MIC C. albicans [3] | MIC C. tropicalis [4] | MIC C. parapsilosis [5] | Molecule |
| --- | --- | --- | --- | --- | --- |
| 0.25 µg/mL (≈ 0.0998 µM) | 1 µg/mL (≈ 0.399 µM) | 0.5 µg/mL (≈ 0.2 µM) | 0.5 µg/mL (≈ 0.2 µM) | 0.25 µg/mL (≈ 0.0998 µM) | N=C(N)NCCC[C@@H](N)C(=O)N[C@@H](CCCNC(=N)N)C(=O)N[C@H](CCCNC(=N)N)C(=O)NCCCCC(=O)N[C@H](CCCNC(=N)N)C(=O)N[C@@H](CCCNC(=N)N)C(=O)N[C@H](CCCNC(=N)N)C(=O)NCCOCC(=O)N[C@H](CCCNC(=N)N)C(=O)N[C@@H](CCCNC(=N)N)C(=O)N[C@H](CCCNC(=N)N)C(=O)N[C@@H](CCCNC(=N)N)C(=O)NCCOCC(=O)N[C@H](CCCNC(=N)N)C(=O)N[C@@H](CCCNC(=N)N)C(=O)N[C@H](CCCNC(=N)N)C(=O)N[C@@H](CCCNC(=N)N)C(N)=O [SEQ ID NO: 51, rRr-(Ava)-rRr-(Aea)-rRrR-(Aea)-rRrR-NH2] (H-[dR]R[dR][Ava][dR]R[dR][AEA][dR]R[dR]R[AEA][dR]R[dR]R-NH2) |
| 0.5 µg/mL (≈ 0.203 µM) | 1 µg/mL (≈ 0.406 µM) | 0.5 µg/mL (≈ 0.203 µM) | 0.5 µg/mL (≈ 0.203 µM) | 1 µg/mL (≈ 0.406 µM) | CC(C)CC[C@H](NC(=O)[C@@H](CCCNC(=N)N)NC(=O)[C@H](CCCNC(=N)N)NC(=O)[C@@H](CCCNC(=N)N)NC(=O)[C@@H]1CCCN1C(=O)[C@H](CCCNC(=N)N)NC(=O)[C@@H](CCCNC(=N)N)NC(=O)[C@H](CCCNC(=N)N)NC(=O)[C@@H](CCCNC(=N)N)NC(=O)[C@@H]1CCCN1C(=O)[C@@H](CCCNC(=N)N)NC(=O)[C@H](CCCNC(=N)N)NC(=O)[C@@H](CCCNC(=N)N)NC(=O)[C@@H]1CCCN1C(=O)[C@@H](CCCNC(=N)N)NC(=O)[C@H](CCCNC(=N)N)NC(=O)[C@H](N)CCCNC(=N)N)C(N)=O [SEQ ID NO: 93, rRr-P-rRr-P-rRrR-P-rRr(hLeu)-NH2] (H-[dR]R[dR]P[dR]R[dR]P[dR]R[dR]RP[dR]R[dR][hLeu]-NH2) |
| 0.5 µg/mL (≈ 0.207 µM) | 2 µg/mL (≈ 0.828 µM) | 0.5 µg/mL (≈ 0.207 µM) | 0.5 µg/mL (≈ 0.207 µM) | 0.5 µg/mL (≈ 0.207 µM) | N=C(N)NCCC[C@@H](N)C(=O)N[C@@H](CCCNC(=N)N)C(=O)N[C@H](CCCNC(=N)N)C(=O)NCCC(=O)N[C@@H](CCCNC(=N)N)C(=O)N[C@@H](CCCNC(=N)N)C(=O)N[C@@H](CCCNC(=N)N)C(=O)NCCC(=O)N[C@H](CCCNC(=N)N)C(=O)N[C@@H](CCCNC(=N)N)C(=O)N[C@H](CCCNC(=N)N)C(=O)N[C@@H](CCCNC(=N)N)C(=O)NCCC(=O)N[C@H](CCCNC(=N)N)C(=O)N[C@@H](CCCNC(=N)N)C(=O)N[C@H](CCCNC(=N)N)C(=O)N[C@@H](CCCNC(=N)N)C(N)=O [SEQ ID NO: 10, rRr-(Apr)-RRR-(Apr)-rRrR-(Apr)-rRrR-NH2] (H-[dR]R[dR][βAla]RRR[βAla][dR]R[dR]R[βAla][dR]R[dR]R-NH2) |
| 0.5 µg/mL (≈ 0.2 µM) | 1 µg/mL (≈ 0.4 µM) | 1 µg/mL (≈ 0.4 µM) | 0.5 µg/mL (≈ 0.2 µM) | 0.5 µg/mL (≈ 0.2 µM) | N=C(N)NCCC[C@@H](N)C(=O)N[C@@H](CCCNC(=N)N)C(=O)N[C@H](CCCNC(=N)N)C(=O)NCCCCC(=O)N[C@H](CCCNC(=N)N)C(=O)N[C@@H](CCCNC(=N)N)C(=O)N[C@H](CCCNC(=N)N)C(=O)NCCNCC(=O)N[C@H](CCCNC(=N)N)C(=O)N[C@@H](CCCNC(=N)N)C(=O)N[C@H](CCCNC(=N)N)C(=O)N[C@@H](CCCNC(=N)N)C(=O)NCCCCC(=O)N[C@H](CCCNC(=N)N)C(=O)N[C@@H](CCCNC(=N)N)C(=O)N[C@H](CCCNC(=N)N)C(=O)N[C@@H](CCCNC(=N)N)C(N)=O [SEQ ID NO: 42, rRr-(Ava)-rRr-(Aeg)-rRrR-(Ava)-rRrR-NH2] |
| 0.5 µg/mL (≈ 0.2 µM) | 1 µg/mL (≈ 0.4 µM) | 1 µg/mL (≈ 0.4 µM) | 0.5 µg/mL (≈ 0.2 µM) | 0.5 µg/mL (≈ 0.2 µM) | N=C(N)NCCC[C@@H](N)C(=O)N[C@@H](CCCNC(=N)N)C(=O)N[C@H](CCCNC(=N)N)C(=O)NCCOCC(=O)N[C@H](CCCNC(=N)N)C(=O)N[C@@H](CCCNC(=N)N)C(=O)N[C@H](CCCNC(=N)N)C(=O)NCCCCC(=O)N[C@H](CCCNC(=N)N)C(=O)N[C@@H](CCCNC(=N)N)C(=O)N[C@H](CCCNC(=N)N)C(=O)N[C@@H](CCCNC(=N)N)C(=O)NCCCCC(=O)N[C@H](CCCNC(=N)N)C(=O)N[C@@H](CCCNC(=N)N)C(=O)N[C@H](CCCNC(=N)N)C(=O)N[C@@H](CCCNC(=N)N)C(N)=O [SEQ ID NO: 47, rRr-(Aea)-rRr-(Ava)-rRrR-(Ava)-rRrR-NH2] (H-[dR]R[dR][AEA][dR]R[dR][Ava][dR]R[dR]R[Ava][dR]R[dR]R-NH2) |

| Molecule | MIC C. dubliniensis [1] | MIC C. glabrata [2] | MIC C. albicans [3] | MIC C. tropicalis [4] | MIC C. parapsilosis [5] |
| --- | --- | --- | --- | --- | --- |
| rR-(Apg)-rR-(Apg)-rRr-(Apg)-rRr-NH2 [SEQ ID NO: 39] | 0.12 µg/mL | 8 µg/mL | 0.25 µg/mL | 0.25 µg/mL | 0.12 µg/mL |
